This is an account of results in patent US10610529B2, “Trabectedin-inclusive injectable pharmaceutical composition for gastrointestinal external use and a method for manufacturing the same” (priority 2016, dated 2020).

A short description of data set [1]: Measurement of related substances and placement stability of lyophilized formulation (accelerated and long-term conditions). The note with it: API, no storage item given. The class given is physicochemical. As to the method: The above intermediate solution was lyophilized to prepare a lyophilized trabectedin formulation. The appearance, water content, reconstitution and pH were investigated. The change of related substances after lyophilization and the placement stability under accelerated conditions (25° C. 60% RH) and long-term conditions (2-8° C.) were measured.
The above lyophilized formulations were stored under accelerated conditions (25° C. 60% RH), and the related substances and water content were measured at different time points.

Data set [2] can be described thus: High-temperature stability of lyophilized products comprising different ratios of glucose/dextran 40. The class given is physicochemical. As to conditions: API, no storage time given.
The conditions of data set [3]: cited from earlier work.
The conditions of data set [4]: cited from earlier work. The source holds these as a separate data set.

SMILES strings stand for the structures.

`COc1cc2c(cc1O)CCN[C@]21CS[C@@H]2c3c(OC(C)=O)c(C)c4c(c3[C@H](COC1=O)N1[C@@H]2[C@H]2c3c(cc(C)c(OC)c3O)C[C@@H]([C@@H]1O)N2C)OCO4` [API, Trabectedin]: in data set [1], the “ET-745 (%)” value is listed as 0.25%, the “ET-759B (%)” value was found to be 0.31% and the “Total impurities (%)” value is 2.56%. Further, in data set [2], the “ET-745 (%)” value was 0.25%, the “ET-759B (%)” value is given as 0.31% and the “Total impurities (%)” value came out at 2.56%. Further, the “solubility in pure water” value in data set [3] is reported as “limited”. For the same compound, the storage time in data set [4] (refrigerated at 5° C.) was no more than 1 month. Moreover, the thermal stability result in data set [4] (room temperature (25° C.)) is “rapidly degrades”.
